Measured values taken from ChEMBL document CHEMBL5108033, “Salidroside attenuates sepsis-associated acute lung injury through PPP1R15A mediated endoplasmic reticulum stress inhibition” (2022).
Active and inactive are the calls of the source. The calls are words filed in the database; no cut-off is given here.

Legend:
Rattus norvegicus [1] = test: Protection against cecal ligation-induced Sprague-Dawley rat sepsis associated acute lung injury model assessed as reduction in lung injury at 50 mg/kg, ip and measured after 24 hrs by H and E staining based analysis; type: functional, organism-based
Rattus norvegicus [2] = test: Protection against cecal ligation-induced Sprague-Dawley rat sepsis associated acute lung injury model assessed as reduction in serum IL-1beta at 50 mg/kg, ip and measured after 24 hrs by ELISA; type: functional, organism-based
Rattus norvegicus [3] = test: Protection against cecal ligation-induced Sprague-Dawley rat sepsis associated acute lung injury model assessed as reduction in serum TNF-alpha at 50 mg/kg, ip and measured after 24 hrs by ELISA; type: functional, organism-based
Rattus norvegicus [4] = test: Protection against cecal ligation-induced Sprague-Dawley rat sepsis associated acute lung injury model assessed as reduction in serum IL-6 at 50 mg/kg, ip and measured after 24 hrs by ELISA; type: functional, organism-based
Rattus norvegicus [5] = test: Protection against cecal ligation-induced Sprague-Dawley rat sepsis associated acute lung injury model assessed as reduction in total cell number in BALF at 50 mg/kg, ip and measured after 24 hrs by cell counter analysis; type: functional, organism-based
Rattus norvegicus [6] = test: Protection against cecal ligation-induced Sprague-Dawley rat sepsis associated acute lung injury model assessed as reduction in neutrophil number in BALF at 50 mg/kg, ip and measured after 24 hrs by cell counter analysis; type: functional, organism-based
Rattus norvegicus [7] = test: Protection against cecal ligation-induced Sprague-Dawley rat sepsis associated acute lung injury model assessed as reduction in neutrophil elastase activity in BALF at 50 mg/kg, ip and measured after 24 hrs by Elastase assay; type: functional, organism-based
Rattus norvegicus [8] = test: Protection against cecal ligation-induced Sprague-Dawley rat sepsis associated acute lung injury model assessed as reduction in lung wet weight to dry weight ratio at 50 mg/kg, ip and measured after 24 hrs; type: functional, organism-based
Rattus norvegicus [9] = test: Protection against cecal ligation-induced Sprague-Dawley rat sepsis associated acute lung injury model assessed as reduction in lung water content at 50 mg/kg, ip and measured after 24 hrs; type: functional, organism-based
Rattus norvegicus [10] = test: Protection against cecal ligation-induced Sprague-Dawley rat sepsis associated acute lung injury model assessed as reduction in albumin content in alveolar lavage fluid supernatant at 50 mg/kg, ip and measured after 24 hrs; type: functional, organism-based
Rattus norvegicus [11] = test: Protection against cecal ligation-induced Sprague-Dawley rat sepsis associated acute lung injury model assessed as upregulation of cecal ligation inhibited PPP1R15A at 50 mg/kg, ip and measured after 24 hrs; type: functional, organism-based
Rattus norvegicus [12] = test: Protection against cecal ligation-induced Sprague-Dawley rat sepsis associated acute lung injury model assessed as downregulation of cecal ligation induced phosphorylated eIF-2alpha level at 50 mg/kg, ip and measured after 24 hrs; type: functional, organism-based
Rattus norvegicus [13] = test: Protection against cecal ligation-induced Sprague-Dawley rat sepsis associated acute lung injury model assessed as downregulation of cecal ligation induced GRP78 level at 50 mg/kg, ip and measured after 24 hrs; type: functional, organism-based
Rattus norvegicus [14] = test: Protection against cecal ligation-induced Sprague-Dawley rat sepsis associated acute lung injury model assessed as downregulation of cecal ligation induced ATF4 level at 50 mg/kg, ip and measured after 24 hrs; type: functional, organism-based
Rattus norvegicus [15] = test: Protection against cecal ligation-induced Sprague-Dawley rat sepsis associated acute lung injury model assessed as downregulation of cecal ligation induced CHOP level at 50 mg/kg, ip and measured after 24 hrs; type: functional, organism-based
Epithelial cell [16] = test: Upregulation of PPP1R15A expression in LPS-stimulated human HBE cells assessed as inhibition of LPS down regulated PPP1R15A expression at 40 uM incubated for 1 hrs by qRT-PCR analysis; type: functional, cell-based
Epithelial cell [17] = test: Cytotoxicity against LPS-stimulated human HBE cells assessed as increase in cell viability at 40 uM and measured for 24 to 72 hrs by CCK-8 assay; type: functional, cell-based; settings: time 24-72 hrs
Epithelial cell [18] = test: Inhibition of apoptosis in LPS-stimulated human HBE cells assessed as necrotic cells at 40 uM incubated for 1 hr by AnnexinV-FITC/PI staining based flow cytometric analysis (Rvb=0.444%); type: functional; parameters: scale not given: the % may be the effect or the level left
Epithelial cell [19] = test: Inhibition of apoptosis in LPS-stimulated human HBE cells assessed as early apoptotic cells at 40 uM incubated for 1 hr by AnnexinV-FITC/PI staining based flow cytometric analysis (Rvb=21.5%); type: functional; parameters: scale not given: the % may be the effect or the level left
Epithelial cell [20] = test: Inhibition of apoptosis in LPS-stimulated human HBE cells assessed as late apoptotic cells at 40 uM incubated for 1 hr by AnnexinV-FITC/PI staining based flow cytometric analysis (Rvb=5.75%); type: functional; parameters: scale not given: the % may be the effect or the level left
Epithelial cell [21] = test: Inhibition of apoptosis in LPS-stimulated human HBE cells assessed as viable cells at 40 uM incubated for 1 hr by AnnexinV-FITC/PI staining based flow cytometric analysis (Rvb=72.3%); type: functional; settings: read-out: Activity
Epithelial cell [22] = test: Induction of apoptosis in LPS-stimulated human HBE cells with silenced PPP1R15A assessed as necrotic cells at 40 uM incubated for 1 hr by AnnexinV-FITC/PI staining based flow cytometric analysis (Rvb=0.518%); type: functional
Epithelial cell [23] = test: Induction of apoptosis in LPS-stimulated human HBE cells with silenced PPP1R15A assessed as early apoptotic cells at 40 uM incubated for 1 hr by AnnexinV-FITC/PI staining based flow cytometric analysis (Rvb=11%); type: functional
Epithelial cell [24] = test: Induction of apoptosis in LPS-stimulated human HBE cells with silenced PPP1R15A assessed as late apoptotic cells at 40 uM incubated for 1 hr by AnnexinV-FITC/PI staining based flow cytometric analysis (Rvb=2.30%); type: functional
Epithelial cell [25] = test: Induction of apoptosis in LPS-stimulated human HBE cells with silenced PPP1R15A assessed as late apoptotic cells at 40 uM incubated for 1 hr by AnnexinV-FITC/PI staining based flow cytometric analysis (Rvb=85.7%); type: functional
Epithelial cell [26] = test: Downregulation of phosphorylated eIF-2alpha expression in LPS-stimulated human HBE cells at 40 uM incubated for 1 hr by western blot analysis; type: functional, cell-based
Epithelial cell [27] = test: Downregulation of GRP78 expression in LPS-stimulated human HBE cells at 40 uM incubated for 1 hr by western blot analysis; type: functional, cell-based
Epithelial cell [28] = test: Downregulation of ATF4 expression in LPS-stimulated human HBE cells at 40 uM incubated for 1 hr by western blot analysis; type: functional, cell-based
Epithelial cell [29] = test: Downregulation of CHOP expression in LPS-stimulated human HBE cells at 40 uM incubated for 1 hr by western blot analysis; type: functional, cell-based
Epithelial cell [30] = test: Downregulation of phosphorylated eIF-2alpha expression in LPS-stimulated human HBE cells with silenced PPP1R15A at 40 uM incubated for 1 hr in presence of TUDCA by western blot analysis; type: functional, cell-based
Epithelial cell [31] = test: Downregulation of GRP78 in LPS-stimulated human HBE cells with silenced PPP1R15A at 40 uM incubated for 1 hr in presence of TUDCA by western blot analysis; type: functional, cell-based
Epithelial cell [32] = test: Downregulation of ATF4 in LPS-stimulated human HBE cells with silenced PPP1R15A at 40 uM incubated for 1 hr in presence of TUDCA by western blot analysis; type: functional, cell-based
Epithelial cell [33] = test: Downregulation of CHOP in LPS-stimulated human HBE cells with silenced PPP1R15A at 40 uM incubated for 1 hr in presence of TUDCA by western blot analysis; type: functional, cell-based
Epithelial cell [34] = test: Cytotoxicity against LPS-stimulated human HBE cells with silenced PPP1R15A assessed as increase in cell viability at 40 uM and measured for 24 to 72 hrs in presence of TUDCA by CCK-8 assay; type: functional, cell-based; settings: time 24-72 hrs
Epithelial cell [35] = test: Inhibition of apoptosis in LPS-stimulated human HBE cells with silenced PPP1R15A assessed as necrotic cells at 40 uM incubated for 1 hr in presence of TUDCA by AnnexinV-FITC/PI staining based flow cytometric analysis (Rvb=2.48%); type: functional; parameters: scale not given: the % may be the effect or the level left
Epithelial cell [36] = test: Inhibition of apoptosis in LPS-stimulated human HBE cells with silenced PPP1R15A assessed as early apoptotic cells at 40 uM incubated for 1 hr in presence of TUDCA by AnnexinV-FITC/PI staining based flow cytometric analysis (Rvb=9.22%); type: functional; parameters: scale not given: the % may be the effect or the level left
Epithelial cell [37] = test: Inhibition of apoptosis in LPS-stimulated human HBE cells with silenced PPP1R15A assessed as late apoptotic cells at 40 uM incubated for 1 hr in presence of TUDCA by AnnexinV-FITC/PI staining based flow cytometric analysis (Rvb=5.08%); type: functional; parameters: scale not given: the % may be the effect or the level left
Epithelial cell [38] = test: Inhibition of apoptosis in LPS-stimulated human HBE cells with silenced PPP1R15A assessed as necrotic cells at 40 uM incubated for 1 hr in presence of TUDCA by AnnexinV-FITC/PI staining based flow cytometric analysis (Rvb=83.2%); type: functional; parameters: scale not given: the % may be the effect or the level left

C[C@@H]1C[C@H]2[C@@H]3CCC4=CC(=O)C=C[C@]4(C)[C@@]3(F)[C@@H](O)C[C@]2(C)[C@@]1(O)C(=O)CO
Activity (Rattus norvegicus [1]): Active | Activity (Rattus norvegicus [2]): Active | Activity (Rattus norvegicus [3]): Active | Activity (Rattus norvegicus [4]): Active | Activity (Rattus norvegicus [5]): Active | Activity (Rattus norvegicus [6]): Active | Activity (Rattus norvegicus [7]): Active | Activity (Rattus norvegicus [8]): Active | Activity (Rattus norvegicus [9]): Active | Activity (Rattus norvegicus [10]): Active | Activity (Rattus norvegicus [11]): Active | Activity (Rattus norvegicus [12]): Active | Activity (Rattus norvegicus [13]): Active | Activity (Rattus norvegicus [14]): Active | Activity (Rattus norvegicus [15]): Active

OC[C@H]1O[C@@H](OCCc2ccc(O)cc2)[C@H](O)[C@@H](O)[C@@H]1O [SALIDROSIDE]
Activity (Rattus norvegicus [1]): Active | Activity (Rattus norvegicus [2]): Active | Activity (Rattus norvegicus [3]): Active | Activity (Rattus norvegicus [4]): Active | Activity (Rattus norvegicus [5]): Active | Activity (Rattus norvegicus [6]): Active | Activity (Rattus norvegicus [7]): Active | Activity (Rattus norvegicus [8]): Active | Activity (Rattus norvegicus [9]): Active | Activity (Rattus norvegicus [10]): Active | Activity (Rattus norvegicus [11]): Active | Activity (Rattus norvegicus [12]): Active | Activity (Rattus norvegicus [13]): Active | Activity (Rattus norvegicus [14]): Active | Activity (Rattus norvegicus [15]): Active | Activity (Epithelial cell [16]): Active | Activity (Epithelial cell [17]): Active | Activity (Epithelial cell [18]): 1.03% | Activity (Epithelial cell [19]): 11% | Activity (Epithelial cell [20]): 3.27% | viability at 40 µM (Epithelial cell [21]): 84.7% | Activity (Epithelial cell [22]): 0.436% | Activity (Epithelial cell [23]): 21.3% | Activity (Epithelial cell [24]): 3.74% | Activity (Epithelial cell [25]): 74.3% | Activity (Epithelial cell [26]): Active | Activity (Epithelial cell [27]): Active | Activity (Epithelial cell [28]): Active | Activity (Epithelial cell [29]): Active | Activity (Epithelial cell [30]): Active | Activity (Epithelial cell [31]): Active | Activity (Epithelial cell [32]): Active | Activity (Epithelial cell [33]): Active | Activity (Epithelial cell [34]): Active | Activity (Epithelial cell [35]): 0.817% | Activity (Epithelial cell [36]): 11.5% | Activity (Epithelial cell [37]): 3.7% | Activity (Epithelial cell [38]): 84%
